From patent publication US20030059511A1, “Sweetener compositions and uses thereof” (AJINOMOTO CO., INC., priority 1999, published 2003)

Tests used:
Format in all cases: in vivo, human
[1] = Measurement of the magnification of sweetness intensity in aqueous solution (sensory evaluation against sucrose solutions); conditions: for Amount equivalent to PSE 10% / intensity of sweetness, times that of sucrose (magnification of sweetness intensity): aqueous solution; for intensity of sweetness, times that of sucrose (magnification of sweetness intensity): about PSE 10%
Method: (§1) An aqueous solution was prepared by diluting derivative 2 to be PSE 10% concentration (15.5 mg/1000 ml=10/6500 g/100 ml), assuming that the intensity of sweetness of derivative 2 was 6500 times that of sucrose. Separately, aqueous sucrose solutions having sucrose concentrations of (a)6.94%, (b)8.33%, (c)10%, (d)12%, and (e)14.4% were prepared. The sensory evaluation was performed by determining which sucrose solution was closest to the solution of derivative 2 in the sweetness intensity. The result of calculation of the average of points of 20 panelists was 2.25 point.
(§2) The intensity of sweetness of the solution of derivative 2 was 8.75% according to the following equation: (10.0−8.33)×0.25+8.33=8.75. Accordingly, the intense sweetness of derivative 2 was 5600 (=8.75/0.00155) times that of sucrose. According to the same experiment, the intensity of sweetness of derivative 1 was 22600 times that of sucrose. Furthermore, the magnification of sweetness intensity of other derivatives (3 to 9) can be determined by the same method.
as §2, with “intensity of” for “intense”
as §1, with “intense” for “intensity of”
The sweetness intensity of the solution of derivative 2 was 8.75% according to the following equation: (10.0−8.33)×0.25+8.33=8.75. Therefore, the magnification of sweetness intensity of derivative 2 was 5600 (=8.75/0.00155) times that of sucrose. When the same experiment was performed, the magnification of sweetness intensity of derivative 1 was 22600 times that of sucrose.

[2] = Equations for calculating sweetness intensity and values calculated from them; conditions: for concentration of the derivative of PSE 0.5%: from the cola drink equation of Example 17; for X when Y=6.3%: from the equation of the respective derivative
Source text: For example, when preparing a solution having a intensity of sweetness equivalent to that of 10% sucrose, wherein 80% of the 10% of intensity of sweetness is from the sweetener component A and the residual 20% is from the sweetener component B, the sweetness ratio is A:B=8:2. When the sweetening magnification relative to sucrose varies depending on the composition and the concentration of the sweetener component is varied even if it is a same sweetener component (in this case, an exponential curve can be prepared and used for calculation), the objective weight of the sweetener component can be calculated. For example, if the equation for converting sweetness intensity (the exponential curve) component A is Y=aX^b, and the equation for converting sweetness intensity (the exponential curve)of component B is Y=cX^d, the weight ratio of the components A and B in the ratio A:B=8:2, can be determined using the following calculation, where Y is a concentration equivalent to that of sucrose (PSE %), and X is the sweetener component concentration (g/100 ml):
(§3) Equations for calculating sweetness intensity in the cola drink (pH 2.8, 20° C.) are as follows, wherein Y denotes the concentration equivalent to that of sucrose (g/100 ml) and X denotes the concentration of the sweetener (g/100 ml), respectively.
With regard to Acesulfame K, the magnification of sweetness intensity was determined according to the following equation for calculating sweetness intensity.
[Y: concentration equivalent to that of sucrose (g/100ml); X: concentration of Acesulfame K (g/100 ml)]
By using the equation for calculating sweetness intensity in the cola drink (refer to Example 4) and the equation for calculating sweetness intensity of Aspartame (refer to the monthly Journal “Food Chemical” August, page 35, 1997), the necessary amounts of those were calculated. In case of Aspartame, the values at 20° C., pH2.8 were used.
The equation for calculating sweetness intensity of derivative 1 in the aqueous solution is as follows.
Where, the calculation of the sweetness was made by using the equation for calculating sweetness intensity of derivative 4 Y=58775X^1.04. When Y=6.3%, X=0.00015 g/100 ml, When Y=5.1%, X=0.00012 g/100 ml.
as §3, with “Examples for equations” for “Equations”, “(pH2.8,” for “(pH 2.8,”, “follows, and another equations can be prepared in the same manner,” for “follows,”

[3] = Magnification of sweetness intensity in the cola drink (sensory evaluation against sucrose cola drinks); conditions: for magnification of sweetness intensity in the cola drink: vs cola drink containing 10% sucrose
Source text: And the magnification of sweetness intensity in the cola drink can be also determined by the same method compared to the control solution of cola drink containing 10% sucrose.
The composition of cola drink is as follows.
As for the concentration of the references, the sucrose concentrations of previous (a) to (e) were used. In consequence, the magnification of sweetness intensity in the cola drink of derivative 1 was 22600 times, and that of derivative 2 was 4900 times.
And the magnification of sweetness intensity in the cola drink can be also determined by the same method compared to the reference solution of cola drink containing 10% sucrose.
The components of cola drink is as follows.
As for the concentration of the references, the sucrose concentrations of previous (a) to (e) were used. As the results, the magnification of sweetness intensity in the cola drink of derivative 1 was 22600 times, and that of derivative 2 was 4900 times.
And the magnification of sweetness in the cola drink can be also determined by the same method compared to the control solution of cola drink containing 10% sucrose.
As for the concentration of the references, the sucrose concentrations of previous (a) to (e) were used. As a result, the magnification of sweetness intensity in the cola drink of derivative 1 was 22600 times, and that of derivative 2 was 4900 times.

Compound: COC(=O)[C@H](Cc1ccccc1)NC(=O)[C@H](CC(=O)O)NCCCc1ccc(OC)cc1 [Derivative 2, N-[N-[3-(4-methoxyphenyl)propyl]-L-α-aspartyl]-L-phenylalanine 1-methyl ester]
- Amount equivalent to PSE 10% [1]: 17.9 mg/1000 ml
- intensity of sweetness of the solution ([1]; aqueous solution 15.5 mg/1000 ml, sucrose-equivalent concentration): 8.75%
- intensity of sweetness, times that of sucrose (magnification of sweetness intensity) [1]: 5600 times
- average of points of 20 panelists ([1]; derivative 2 aqueous solution 15.5 mg/1000 ml, closest of sucrose solutions (a)6.94% to (e)14.4%): 2.25 point
- magnification of sweetness intensity at PSE 4% ([2]; calculated, sweetener for tabletop use): 6000 times
- concentration of the derivative of PSE 0.5% [2]: 0.0000597 g/dL
- Amount equivalent to PSE 10% [3]: 20.4 mg/1000 ml
- magnification of sweetness intensity in the cola drink [3]: 4900 times

Compound: COC(=O)[C@H](Cc1ccccc1)NC(=O)[C@H](CC(=O)O)NCCC(C)(C)c1ccc(O)c(C)c1 [Derivative 4, N-[N-[3-(3-methyl-4-hydroxyphenyl)-3-methylbutyl]-L-α-aspartyl]-L-phenylalanine 1-methyl ester]
- Amount equivalent to PSE 10% [1]: 2.3 mg/1000 ml
- X when Y=5.1% ([2]; from the equation of derivative 4): 0.00012 g/100 ml
- X when Y=6.3% [2]: 0.00015 g/100 ml
- Amount equivalent to PSE 10% [3]: 3.4 mg/1000 ml

Compound: COC(=O)[C@H](Cc1ccccc1)NC(=O)[C@H](CC(=O)O)NCCC(C)(C)c1ccc(O)cc1 [Derivative 6, N-[N-[3-(4-hydroxyphenyl)-3-methylbutyl]-L-α-aspartyl]-L-phenylalanine 1-methyl ester]
- Amount equivalent to PSE 10% [1]: 6.7 mg/1000 ml
- X when Y=9.6% ([2]; from the equation of derivative 6): 0.000685 g/100 ml
- Amount equivalent to PSE 10% [3]: 7.1 mg/1000 ml

Compound: COC(=O)[C@H](Cc1ccccc1)NC(=O)[C@H](CC(=O)O)NCCCc1ccc(O)c(C)c1 [Derivative 8, N-[N-[3-(3-methyl-4-hydroxyphenyl)propyl]-L-α-aspartyl]-L-phenylalanine 1-methyl ester]
- Amount equivalent to PSE 10% [1]: 5.5 mg/1000 ml
- X when Y=8.9% ([2]; from the equation of derivative 8): 0.00055 g/100 ml
- X when Y=6.3% [2]: 0.00036 g/100 ml
- Amount equivalent to PSE 10% [3]: 6.3 mg/1000 ml

Compound: COC(=O)[C@H](Cc1ccccc1)NC(=O)[C@H](CC(=O)O)NCCCc1ccc(OC)c(O)c1 [Derivative 1, N-[N-[3-(3-hydroxy-4-methoxyphenyl)propyl] -L-α-aspartyl]-L-phenylalanine 1-methyl ester]
- Amount equivalent to PSE 10% [1]: 4.5 mg/1000 ml
- intensity of sweetness, times that of sucrose (magnification of sweetness intensity) [1]: 22600 times
- magnification of the sweetness intensity at PSE 5% ([2]; calculated, block ice of Example 12): 25600 times
- X, concentration of the sweetener when Y=1 ([2]; cola drink, pH 2.8, 20° C.): 0.000074 g/100 ml
- X, concentration of the sweetener when Y=2 ([2]; cola drink, pH 2.8, 20° C.): 0.00013 g/100 ml
- X, concentration of the sweetener when Y=5 ([2]; cola drink, pH 2.8, 20° C.): 0.00026 g/100 ml
- X, concentration of the sweetener when Y=8 ([2]; cola drink, pH 2.8, 20° C.): 0.00037 g/100 ml
- X, concentration of the sweetener when Y=9.5 ([2]; cola drink, pH 2.8, 20° C.): 0.000425 g/100 ml
- concentration of the derivative of PSE 0.5% [2]: 0.0000434 g/dL
- Amount equivalent to PSE 10% [3]: 4.5 mg/1000 ml
- magnification of sweetness intensity in the cola drink [3]: 22600 times
